Here are results for six molecules from ChEMBL document CHEMBL1212926, “Design of potent inhibitors of human RAD51 recombinase based on BRC motifs of BRCA2 protein: modeling and experimental validation of a chimera peptide” (J Med Chem, 2010).

Calls of active or inactive are those of the source. No cut-off for these calls is given here. Where a SMILES comes first, the peptide text is derived from it.

Assay [1] has as its target T1, DNA repair protein RAD51 homolog 1 (Homo sapiens) (UniProt Q06609).
T1 sequence (whole entry): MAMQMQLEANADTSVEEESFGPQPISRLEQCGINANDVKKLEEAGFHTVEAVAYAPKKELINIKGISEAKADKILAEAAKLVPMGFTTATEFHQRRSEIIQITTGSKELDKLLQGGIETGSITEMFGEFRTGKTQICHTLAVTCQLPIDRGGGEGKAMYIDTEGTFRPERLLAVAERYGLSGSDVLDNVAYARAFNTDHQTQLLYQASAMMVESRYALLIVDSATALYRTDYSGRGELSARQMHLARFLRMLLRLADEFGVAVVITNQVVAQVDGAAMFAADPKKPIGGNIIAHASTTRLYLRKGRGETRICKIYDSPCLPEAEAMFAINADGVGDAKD
In words: Binding affinity to human RAD51 by isothermal titration calorimetry.

In assay [2] the target is T1, DNA repair protein RAD51 homolog 1 (Homo sapiens). Briefly: Inhibition of human RAD51-mediated 58-mer single-stranded DNA strand exchange activity at 5 to 15 uM after 1 hr by PAGE.
For assay [3] the target is unchanged. Briefly: Binding affinity to human RAD51 at 40 uM by circular dichroism assay.
The target of assay [4] is T2, DNA repair protein RAD51 homolog 1 (Homo sapiens, UniProt Q06609).
T2 sequence (Q06609 whole entry): T1 sequence (whole entry)
Briefly: Inhibition of human RAD51 assessed as concentration required for half dissociation of protein/single-stranded DNA complex formation by fluorescence polarimetry.

For assay [5], the target named is T2, DNA repair protein RAD51 homolog 1. Briefly: Inhibition of human RAD51 assessed as dissociation of protein/single-stranded poly-(d-epsilonA) complex formation by fluorescence polarimetry.
Assay [6] has the same target. In words: Inhibition of human RAD51 assessed as dissociation of protein/single-stranded oligo(AGT)12 complex formation by fluorescence polarimetry.

For the molecule `CC[C@H](C)[C@H](NC(=O)[C@H](CCCCN)NC(=O)[C@@H](NC(=O)[C@H](CCCCN)NC(=O)[C@H](CCCCN)NC(=O)CNC(=O)[C@H](CO)NC(=O)[C@H](CO)NC(=O)[C@@H](NC(=O)[C@H](Cc1cnc[nH]1)NC(=O)[C@H](Cc1ccccc1)NC(=O)CN)[C@@H](C)O)C(C)C)C(=O)N[C@@H](C)C(=O)N[C@@H](CCCCN)C(=O)N[C@@H](CCC(=O)O)C(=O)N[C@@H](CO)C(=O)N[C@@H](CC(C)C)C(=O)N[C@@H](CC(=O)O)C(=O)N[C@@H](CCCCN)C(=O)N[C@H](C(=O)N[C@@H](CCCCN)C(=O)N[C@@H](CC(N)=O)C(=O)N[C@@H](CC(C)C)C(=O)N[C@@H](Cc1ccccc1)C(=O)O)C(C)C`, the K in assay [1] is below 0.1 ×10⁵ /M. The inhibition result in assay [2] is “Active”. Further, the result in assay [3] was Active.

As for `CC[C@H](C)[C@H](NC(=O)[C@H](CCCCN)NC(=O)[C@@H](NC(=O)[C@H](CCCCN)NC(=O)[C@H](CCCCN)NC(=O)CNC(=O)[C@H](CO)NC(=O)[C@H](C)NC(=O)[C@@H](NC(=O)[C@H](Cc1cnc[nH]1)NC(=O)[C@H](Cc1ccccc1)NC(=O)CN)[C@@H](C)O)C(C)C)C(=O)N[C@@H](C)C(=O)N[C@@H](CCCCN)C(=O)N[C@@H](CCC(=O)O)C(=O)N[C@@H](CO)C(=O)N[C@@H](CC(C)C)C(=O)N[C@@H](CC(=O)O)C(=O)N[C@@H](CCCCN)C(=O)N[C@H](C(=O)N[C@@H](CCCCN)C(=O)N[C@@H](CC(N)=O)C(=O)N[C@@H](Cc1ccccc1)C(=O)N[C@@H](Cc1ccccc1)C(=O)O)C(C)C`, the inhibition constant (Ki) in assay [4] was 4200 nM. This molecule also came in with a K in assay [1] of 7.3 ×10⁵ /M. In addition, the half-maximal inhibitory concentration (IC50) in assay [5] stood at 5000 nM; in assay [6], 2600 nM. Moreover, the inhibition entry in assay [2] was “Active”. The result in assay [3] was Active.

With `CC[C@H](C)[C@H](NC(=O)[C@H](CCCCN)NC(=O)[C@@H](NC(=O)[C@H](CCCCN)NC(=O)[C@H](CCCCN)NC(=O)CNC(=O)[C@H](CO)NC(=O)[C@H](C)NC(=O)[C@@H](NC(=O)[C@@H](N)Cc1cnc[nH]1)[C@@H](C)O)C(C)C)C(=O)N[C@@H](C)C(=O)N[C@@H](CCCCN)C(=O)N[C@@H](CCC(=O)O)C(=O)N[C@@H](CO)C(=O)N[C@@H](CC(C)C)C(=O)N[C@@H](CC(=O)O)C(=O)N[C@@H](CCCCN)C(=O)N[C@H](C(=O)N[C@@H](CCCCN)C(=O)N[C@@H](CC(N)=O)C(=O)N[C@@H](CC(C)C)C(=O)N[C@@H](Cc1ccccc1)C(=O)N[C@@H](CC(=O)O)C(=O)N[C@@H](CCC(=O)O)C(=O)O)C(C)C` (H-HTASGKKVKIAKESLDKVKNLFDE-OH), the outcome in assay [3] was Active.

Turning to `CC[C@H](C)[C@H](NC(=O)[C@H](CCCCN)NC(=O)[C@@H](NC(=O)[C@H](CCCCN)NC(=O)[C@H](CCCCN)NC(=O)CNC(=O)[C@H](CO)NC(=O)[C@H](C)NC(=O)[C@@H](NC(=O)[C@H](Cc1ccc(O)cc1)NC(=O)[C@H](Cc1ccccc1)NC(=O)CN)[C@@H](C)O)C(C)C)C(=O)N[C@@H](C)C(=O)N[C@@H](CCCCN)C(=O)N[C@@H](CCC(=O)O)C(=O)N[C@@H](CO)C(=O)N[C@@H](CC(C)C)C(=O)N[C@@H](CC(=O)O)C(=O)N[C@@H](CCCCN)C(=O)N[C@H](C(=O)N[C@@H](CCCCN)C(=O)N[C@@H](CC(N)=O)C(=O)N[C@@H](CC(C)C)C(=O)N[C@@H](Cc1ccccc1)C(=O)O)C(C)C`, the inhibitory constant (Ki) in assay [4] came out at 6000 nM. Besides, in assay [1], the K came to 3.8 ×10⁵ /M. In addition, the IC50 was 7000 nM in assay [5] and 2700 nM in assay [6]. Moreover, the inhibition result in assay [2] was “Active”. Besides, the result in assay [3] was Active.

For the molecule `CC[C@H](C)[C@H](NC(=O)[C@H](CCCCN)NC(=O)[C@@H](NC(=O)[C@H](CCCCN)NC(=O)[C@H](CCCCN)NC(=O)CNC(=O)[C@H](CO)NC(=O)[C@H](C)NC(=O)[C@@H](NC(=O)[C@H](Cc1ccc(O)cc1)NC(=O)[C@H](Cc1ccccc1)NC(=O)CN)[C@@H](C)O)C(C)C)C(=O)N[C@@H](CO)C(=O)N[C@@H](CCCCN)C(=O)N[C@@H](CCC(=O)O)C(=O)N[C@@H](CO)C(=O)N[C@@H](CC(C)C)C(=O)N[C@@H](CC(=O)O)C(=O)N[C@@H](CCCCN)C(=O)N[C@H](C(=O)N[C@@H](CCCCN)C(=O)N[C@@H](CC(N)=O)C(=O)N[C@@H](Cc1ccccc1)C(=O)N[C@@H](Cc1ccccc1)C(=O)O)C(C)C` (H-GFYTASGKKVKISKESLDKVKNFF-OH), the inhibition constant Ki in assay [4] was 750 nM. Moreover, the half-maximal inhibitory concentration (IC50) in assay [5] was 1500 nM; in assay [6] it was 1050 nM. In assay [2], the inhibition result is “Active”.

For `CC[C@H](C)[C@H](NC(=O)[C@H](CCCCN)NC(=O)[C@@H](NC(=O)[C@H](CCCCN)NC(=O)[C@H](CCCCN)NC(=O)CNC(=O)[C@H](CO)NC(=O)[C@H](C)NC(=O)[C@@H](NC(=O)[C@H](Cc1cnc[nH]1)NC(=O)[C@H](Cc1ccccc1)NC(=O)CN)[C@@H](C)O)C(C)C)C(=O)N[C@@H](CO)C(=O)N[C@@H](CCCCN)C(=O)N[C@@H](CCC(=O)O)C(=O)N[C@@H](CO)C(=O)N[C@@H](CC(C)C)C(=O)N[C@@H](CC(=O)O)C(=O)N[C@@H](CCCCN)C(=O)N[C@H](C(=O)N[C@@H](CCCCN)C(=O)N[C@@H](CC(N)=O)C(=O)N[C@@H](CC(C)C)C(=O)N[C@@H](Cc1ccccc1)C(=O)O)C(C)C`, the Ki in assay [4] worked out at 1800 nM. Also, the K in assay [1] turned out to be 5.2 ×10⁵ /M. The 50% inhibitory concentration (IC50) in assay [5] was determined as 2500 nM; in assay [6] it was 2000 nM. The inhibition result in assay [2] was “Active”. Also, the result in assay [3] was Active.
